Data published in US20100021885A1, “REAGENT SETS AND GENE SIGNATURES FOR NON-GENOTOXIC HEPATOCARCINOGENICITY” (priority 2006, published 2010).
Like-named read-outs stand apart in the source and are kept apart here.

What was measured:
liver of rats = conditions: cited from earlier work
[1] = test system: livers from treated male Sprague-Dawley rats
Description: Briefly, in vivo short-term repeat dose rat studies were conducted on over 580 test compounds, including marketed and withdrawn drugs, environmental and industrial toxicants, and standard biochemical reagents. Rats (three per group) were dosed daily at either a low or high dose. […] Animals were necropsied on days 0.25, 1, 3, and 5 or 7. Up to 13 tissues (e.g., liver, kidney, heart, bone marrow, blood, spleen, brain, intestine, glandular and nonglandular stomach, lung, muscle, and gonads) were collected for histopathological evaluation and microarray expression profiling on the Amersham CodeLink™ RU1 platform (also referred to herein as “CodeLink Uniset™ Rat 1 Bioarray”). In addition, a clinical pathology panel consisting of 37 clinical chemistry and hematology parameters was generated from blood samples collected on days 3 and 5.
The remaining 21 NGTC chemicals and 26 NC chemicals were reserved for independent validation of the signature. Each chemical was evaluated in a short term repeat dose in vivo study in male Sprague-Dawley rats (n=3/group). The livers from treated and control rats were collected after 1, 3 and 5 days of dosing and RNA was extracted for gene expression profiling. Gene expression changes in treated animals were compared to suitably matched controls and represented as average log10 ratios for each treatment group. Since the development of tumors is a long term multi-step process, the 100 training set chemicals were profiled at the latest time point in order to capture gene expression changes that were likely to be reflective of repeat dose treatment effects that contribute to carcinogenicity and not reflective of an initial stimulus following a single dose that may be transient in nature.
Male Sprague-Dawley (Crl:CD®(SD)(IGS)BR) rats (weight matched, 7 to 8 weeks of age and averaging 200 to 250 g) were purchased from Charles River Laboratories (Portage, Mich.) and housed individually in hanging, stainless steel, wire-bottom cages in a temperature (66-77° F.), light (12-hour dark/light cycle) and humidity (30-70%) controlled room. […] Housing and treatment of the animals were in accordance with regulations outlined in the USDA Animal Welfare Act (9 CFR Parts 1, 2 and 3). Animals were assigned to groups such that mean body weights were within 10% of the mean vehicle control group. Test articles were administered either orally (10 ml of corn oil/kg body weight) or by intra-peritoneal injection (5 ml of saline/kg body weight), as indicated. Animals were dosed once daily starting on day 0, and necropsied 24 hrs after the last dose, as indicated. An equivalent number of time- and vehicle-matched control rats were treated concurrently.
Briefly, liver samples from 3 rats were chosen from each treatment and control group for gene expression analysis on the Codelink Uniset™ Rat 1 Bioarray (GE Healthcare Bio-Sciences Corp., Piscataway, N.J.). A complete list of probes on the array is provided on the Amersham Biosciences web site (www.amershambiosciences.com). Log transformed signal data for all probes were array-wise normalized used Array Qualifier (Novation Biosciences, Palo Alto, Calif.), a non-linear centralization normalization procedure adapted for the CodeLink microarray platform. Log10 ratios for each experimental group are computed as the difference between the average of the logs of the normalized experimental signals and the average of the logs of the normalized control signals for each gene.
where S is the scalar product and b is the bias term. Evaluation of S for a test experiment across the n genes in the signature determines what side of the hyperplane in m dimensional space the test experiment lies, and thus the result of the classification. Experiments with scalar products greater than 0 are considered positive for non-genotoxic hepatocarcinogenicity.

[2] = test chemicals, literature class NGTC or NC
[3] = male, Sprague-Dawley, rat, in vivo
[4] = maximum of days 1, 3, 5, greater than zero = classified non-genotoxic hepatocarcinogen

**Q.** Which results are given for `CCCCC(CC)COC(=O)c1ccccc1C(=O)OCC(CC)CCCC` (centres unmarked) [BIS(2-ETHYLHEXYL)PHTHALATE]?
**A.** Class (liver of rats; rat, in vivo): NGTC; Day 1 (scalar product) ([1]; rat, in vivo): 0.47; Day 3 (scalar product) ([1]; rat, in vivo): 1.04; Day 5 (scalar product) ([1]; rat, in vivo): −0.09; Max (maximum scalar product observed over the multiple time points) ([1]; rat, in vivo): 1.04

**Q.** For `NC(=O)N1c2ccccc2C=Cc2ccccc21` [CARBAMAZEPINE], which Class (liver of rats; [2]) is on record?
**A.** The Class was “NGTC”.

**Q.** And the “Max (maximum scalar product observed over the multiple time points)” value [1, 3]?
**A.** Its value is −0.35.

**Q.** Which results are given for `CC(=O)O[C@]1(C(C)=O)CC[C@H]2[C@@H]3C=C(Cl)C4=CC(=O)[C@@H]5C[C@@H]5[C@]4(C)[C@H]3CC[C@@]21C` [CYPROTERONE ACETATE]?
**A.** Class (liver of rats; [2]): NGTC; Max (maximum scalar product observed over the multiple time points) [1, 3]: 1.16

**Q.** For `CC/C(=C(/CC)c1ccc(O)cc1)c1ccc(O)cc1` [DIETHYLSTILBESTROL], which Class (liver of rats; [2]) is on record?
**A.** Its Class is “NGTC”.

**Q.** What about the “Max (maximum scalar product observed over the multiple time points)” value [1, 3] of the same compound?
**A.** Its value is 2.75.

**Q.** Which results are given for `CC[C@]1(O)CC[C@H]2[C@@H]3CCC4=CCCC[C@@H]4[C@H]3CC[C@@]21C` [ETHYLESTRENOL]?
**A.** Class (liver of rats; [2]): NGTC; Max (maximum scalar product observed over the multiple time points) [1, 4]: 2.25

**Q.** For `COC(=O)Nc1nc2ccc(Sc3ccccc3)cc2[nH]1` [FENBENDAZOLE], which Class (liver of rats; [2]) is on record?
**A.** The Class was “NGTC”.

**Q.** What about the “Max (maximum scalar product observed over the multiple time points)” value [1, 4] of the same compound?
**A.** Its value is 0.17.

**Q.** For `OC(Cn1cncn1)(Cn1cncn1)c1ccc(F)cc1F` [FLUCONAZOLE], which Class (liver of rats; [2]) is on record?
**A.** The Class was “NGTC”.

**Q.** And the “Max (maximum scalar product observed over the multiple time points)” value [1, 3]?
**A.** Its value is 3.63.

**Q.** For `CC[C@H](C)C(=O)O[C@H]1C[C@@H](C)C=C2C=C[C@H](C)[C@H](CC[C@@H]3C[C@@H](O)CC(=O)O3)[C@H]21` [LOVASTATIN], which Class (liver of rats; [2]) is on record?
**A.** Its Class is “NGTC”.

**Q.** What about the “Max (maximum scalar product observed over the multiple time points)” value [1, 3] of the same compound?
**A.** Its value is 1.07.

**Q.** Which Class (liver of rats; rat, in vivo) does the source give for `CCN(CC)N=O` [N-nitrosodiethylamine, reference compound] here?
**A.** The Class was “GTC”.

**Q.** And the “Day 1 (scalar product)” value ([1]; male, rat, in vivo)?
**A.** Its value is −2.17.

**Q.** And the “Day 3 (scalar product)” value ([1]; male, rat, in vivo)?
**A.** Its value is −1.83.

**Q.** And the “Day 5 (scalar product)” value ([1]; male, rat, in vivo)?
**A.** The value was −1.41.

**Q.** What about the “Max (maximum scalar product observed over the multiple time points)” value ([1]; male, rat, in vivo) of the same compound?
**A.** Its value is −1.41.

**Q.** What about the “signature prediction for non-genotoxic hepatocarcinogenicity” value ([1]; rat, in vivo) of the same compound?
**A.** The value was “negative”.

**Q.** Which results are given for `COC(=O)Nc1nc2ccc([S+]([O-])c3ccccc3)cc2[nH]1` (centres unmarked) [OXFENDAZOLE]?
**A.** Class (liver of rats; [2]): NGTC; Max (maximum scalar product observed over the multiple time points) [1, 3]: 0.32

**Q.** Which results are given for `CC(=O)S[C@@H]1CC2=CC(=O)CC[C@]2(C)[C@H]2CC[C@@]3(C)[C@@H](CC[C@@]34CCC(=O)O4)[C@H]12` [SPIRONOLACTONE]?
**A.** Class (liver of rats; [2]): NGTC; Max (maximum scalar product observed over the multiple time points) [1, 3]: 0.37

**Q.** With `C[C@]12Cc3c[nH]nc3C[C@@H]1CC[C@@H]1[C@@H]2CC[C@@]2(C)[C@H]1CC[C@]2(C)O` [STANOZOLOL] as the compound, how does the Class (liver of rats; [2]) read?
**A.** The Class was “NGTC”.

**Q.** What about the “Max (maximum scalar product observed over the multiple time points)” value [1, 4] of the same compound?
**A.** Its value is 0.54.

**Q.** For `C[C@]12CC[C@H]3[C@@H](CCC4=CC(=O)CC[C@@]43C)[C@@H]1CC[C@@H]2O` [TESTOSTERONE], which Class (liver of rats; rat, in vivo) is on record?
**A.** The Class was “NGTC”.

**Q.** And the “Day 1 (scalar product)” value ([1]; male, rat, in vivo)?
**A.** Its value is 0.25.

**Q.** And the “Day 3 (scalar product)” value ([1]; male, rat, in vivo)?
**A.** The value was 0.45.

**Q.** What about the “Day 5 (scalar product)” value ([1]; male, rat, in vivo) of the same compound?
**A.** Its value is −0.63.

**Q.** And the “Max (maximum scalar product observed over the multiple time points)” value ([1]; male, rat, in vivo)?
**A.** The value was 0.45.

**Q.** With `ClC(Cl)(Cl)Cl` [carbon tetrachloride, reference compound] as the compound, how does the Class (liver of rats; [2]) read?
**A.** The Class was “NGTC”.

**Q.** And the “signature prediction for non-genotoxic hepatocarcinogenicity” value ([1]; 37 gene signature, maximum scalar product over days 1, 3 and 5, scalar product greater than zero = positive)?
**A.** The value was “positive”.

**Q.** And the “Max (maximum scalar product observed over the multiple time points)” value [1, 4]?
**A.** The value was 0.50.

**Q.** Which results are given for `ClC(Cl)Cl` [chloroform, reference compound]?
**A.** Class (liver of rats; rat, in vivo): NGTC; Day 1 (scalar product) ([1]; male, rat, in vivo): 1.50; Day 3 (scalar product) ([1]; male, rat, in vivo): 0.74; Day 5 (scalar product) ([1]; male, rat, in vivo): 0.27; Max (maximum scalar product observed over the multiple time points) ([1]; male, rat, in vivo): 1.50

**Q.** Which Class (liver of rats; rat, in vivo) does the source give for `NN` [hydrazine, reference compound] here?
**A.** Its Class is “GTC”.

**Q.** What about the “Day 1 (scalar product)” value ([1]; male, rat, in vivo) of the same compound?
**A.** The value was −0.10.

**Q.** And the “Day 3 (scalar product)” value ([1]; male, rat, in vivo)?
**A.** The value was −1.31.

**Q.** What about the “Day 5 (scalar product)” value ([1]; male, rat, in vivo) of the same compound?
**A.** Its value is −1.48.

**Q.** What about the “Max (maximum scalar product observed over the multiple time points)” value ([1]; male, rat, in vivo) of the same compound?
**A.** The value was −0.10.

**Q.** And the “signature prediction for non-genotoxic hepatocarcinogenicity” value ([1]; rat, in vivo)?
**A.** The value was “negative”.
